“And” between values parts separate entries of the source, which are not always exact repeats. Equal entries are not always repeated. Where two headings read alike, the source gives them in different places.
How the values were obtained:
[1] = Patient-reported side effects of nilotinib (questionnaire, 5-point Likert scale); format: in vivo, CP-CML patients
Source text: At study entry, patients completed a self-administered composite questionnaire including demographic characteristics (date of birth, gender, education, living status, and working status), use of St. John’s wort, use of grapefruit (juice), quality of life (Short Form-12 Health Survey [SF-12]), side effects, and beliefs about medication in general (Beliefs about Medicines Questionnaire [BMQ]-General) and specifically about nilotinib (BMQ-Specific). The questionnaire at 3, 6, and 12 months also included the MARS-5 and questions on nilotinib intake in relation to food intake, use of tools to prevent forgetting, illness perception (Brief Illness Perception Questionnaire [Brief IPQ]), and information satisfaction (Satisfaction with Information about Medicines Scale [SIMS])[51, 52]. Education was assessed as the highest level completed, and dichotomized into higher education (higher general secondary education or above) and lower education. Living status was categorized as living alone or not living alone, and work status as having paid work or not. Questions on side effects were based on literature data and concerned specific nilotinib toxicities occurring in > 10% of patients (headache, nausea, rash, itching, myalgia, fatigue). Answers were scored on a 5-point Likert scale (0 = not at all to 4 = very much). Symptoms scored as “3 = a lot” or “4 = very much” were considered “severe.”

[2] = Nilotinib trough plasma concentration (Cmin) from dried blood spot self-sampling; format: in vivo, CP-CML patients
Method: Blood sampling was performed by the patient at home by means of a validated dried blood spot (DBS) sampling method. Using the DBS, nilotinib plasma concentrations were calculated as previously reported. Patients were instructed to sample blood at predose at baseline (if already on nilotinib treatment), 3, 6, and 12 months from study entry. The time of blood sampling, time of last nilotinib intake, and body weight were recorded in patient diaries. Cmin samples were defined as those taken between 8 and 16 h after the prior dose.
Individual measures of exposure were obtained using averaged Cmin values for individual patients based on the measurements obtained at baseline, 3, 6, and 12 months. Intra-patient variability in nilotinib Cmin was analyzed in patients who had ≥ 2 analyzed samples available and expressed as the average coefficient of variation (CV%). Missing Cmin values were imputed with the mean of the observed Cmin values for the corresponding dose. Univariable linear regression was used to identify variables (one by one) related to nilotinib Cmin. GEE was used to identify whether the occurrence of side effects was related to observed nilotinib Cmin values (without imputation) obtained at baseline, 3, 6, and 12 months.

BCR-ABL transcript level [3] = experiment: Molecular response (MMR, BCR-ABL transcript level ≤ 0.1% IS) to nilotinib treatment; format: in vivo, CP-CML patients
Method: The response was considered optimal when a MMR was achieved within 12 months of nilotinib treatment. MMR was defined as a BCR-ABL transcript level of ≤ 0.1% on the International Scale. For patients already on treatment at entry, the time until MMR was obtained retrospectively from their medical files.
Comparison of adherence (continuous) and Cmin values (either grouped into quartiles [Q1 vs. Q2–Q4] or based on a previously reported threshold concentration of 490 μg/L) among response groups (time to MMR after start of nilotinib treatment ≤ 12 months vs. > 12 months, stratified by line of treatment) was performed using Mann-Whitney tests and Fisher’s exact tests. Time to MMR was assessed using the Kaplan Meier method with logrank test. In these outcome analyses, the mean of each measure of adherence and Cmin values was used. For all analyses, a two-tailed significance level of 0.05 was used. p values below this level were considered statistically significant. All statistical analyses were performed using SPSS version 22 for Windows (IBM Corp, Armonk, NY, USA).

BCR-ABL transcript level [4] = test system: BCR-ABL transcript level; parameters: method as in PMID 26837842; conditions: 5-year update of the ENESTnd trial, first-line; cited from earlier work
[5] = Nilotinib treatment discontinuation during the 12-month study period; format: in vivo, CP-CML patients; conditions: of 68 patients
Source text: In this multicenter prospective observational study, conducted between August 2013 and April 2017 in six Dutch hospitals, CP-CML patients using nilotinib were followed for 12 months. Initially, it was the aim only to include newly diagnosed CP-CML patients starting nilotinib treatment. […] The study was registered in the Netherlands Trial Register (NTR3992) and the protocol has been published previously.
Information on disease characteristics, medical history, co-medication, and nilotinib treatment was obtained from the patient’s medical file and pharmacy dispensing record.

[6] = 42 patients with ≥ 2 analyzed samples
[7] = second/third-line nilotinib treatment

SMILES: Cc1cn(-c2cc(NC(=O)c3ccc(C)c(Nc4nccc(-c5cccnc5)n4)c3)cc(C(F)(F)F)c2)cn1 [nilotinib]
- Fatigue, % of patients experiencing (any severity) [1]: About 75%
- Itching, % of patients reporting (any severity) [1]: 59%
- Myalgia, % of patients reporting (any severity) [1]: 54%
- Rash, % of patients reporting (any severity) [1]: 43%
- Fatigue, % mild ([1]; mild = a little bit/rather): 54.9%
- Headache, % mild ([1]; mild = a little bit/rather): 35.8%
- Itching, % mild ([1]; mild = a little bit/rather): 51.9%
- Myalgia, % mild ([1]; mild = a little bit/rather): 48.1%
- Nausea, % mild ([1]; mild = a little bit/rather): 20.4%
- Rash, % mild ([1]; mild = a little bit/rather): 35.2%
- Fatigue, % severe ([1]; severe = a lot/very much): 20% and 19.6%
- Headache, % severe ([1]; severe = a lot/very much): 1.9%
- Itching, % severe ([1]; severe = a lot/very much): 7.4%
- Myalgia, % severe ([1]; severe = a lot/very much): 6% and 5.8%
- Nausea, % severe ([1]; severe = a lot/very much): 1.9%
- Rash, % severe ([1]; severe = a lot/very much): 7.4%
- Observed nilotinib Cmin, mean ± SD ([2]; 150 mg BID (n = 15 samples)): 835 ± 412 ng/mL
- Observed nilotinib Cmin, median (IQR) ([2]; 150 mg BID (n = 15 samples)): 656 (548–1042) μg/L
- Observed nilotinib Cmin, range ([2]; 150 mg BID (n = 15 samples)): 390 to 1793 ng/mL
- Observed nilotinib Cmin, mean ± SD ([2]; 300 mg BID (n = 85 samples)): 1021 ± 472 ng/mL
- Observed nilotinib Cmin, median (IQR) ([2]; 300 mg BID (n = 85 samples)): 954 (654–1274) μg/L
- Observed nilotinib Cmin, range ([2]; 300 mg BID (n = 85 samples)): 196 to 2413 ng/mL
- Observed nilotinib Cmin, mean ± SD ([2]; 300 mg QD (n = 6 samples)): 567 ± 110 ng/mL
- Observed nilotinib Cmin, median (IQR) ([2]; 300 mg QD (n = 6 samples)): 589 (450–658) μg/L
- Observed nilotinib Cmin, range ([2]; 300 mg QD (n = 6 samples)): 418 to 702 ng/mL
- Observed nilotinib Cmin, mean ± SD ([2]; 400 mg BID (n = 25 samples)): 1497 ± 597 ng/mL
- Observed nilotinib Cmin, median (IQR) ([2]; 400 mg BID (n = 25 samples)): 1253 (1054–2053) μg/L
- Observed nilotinib Cmin, range ([2]; 400 mg BID (n = 25 samples)): 342 to 2540 ng/mL
- Observed nilotinib Cmin, mean ± SD ([2]; 400 mg QD (n = 6 samples)): 536 ± 57 ng/mL
- Observed nilotinib Cmin, median (IQR) ([2]; 400 mg QD (n = 6 samples)): 552 (517–570) μg/L
- Observed nilotinib Cmin, range ([2]; 400 mg QD (n = 6 samples)): 422 to 574 ng/mL
- intra-patient variability, %CV in Cmin (mean ± SD) [2, 6]: 25 ± 19%
- intra-patient variability, %CV in Cmin, median [2, 6]: 20%
- intra-patient variability, %CV in Cmin, range [2, 6]: 1–91%
- patients with nilotinib Cmin generally above the therapeutic target ([2]; in vivo): 95%
- range of Cmin values below the threshold concentration of 490 μg/L ([2]; nine patients): 196 to 467 ng/mL
- patients with a Cmin below the threshold concentration of 490 μg/L at any time ([2]; nine patients of 56): 16%
- Cmin median (IQR) ([2]; patients reporting Fatigue: Mild (n = 72)): 974 (644–1373) μg/L
- Cmin median (IQR) ([2]; patients reporting Fatigue: None (n = 32)): 777 (561–1087) μg/L
- Cmin median (IQR) ([2]; patients reporting Fatigue: Severe (n = 25), p any .007, severe .023): 1160 (787–1468) μg/L
- Cmin median (IQR) ([2]; patients reporting Headache: Mild (n = 40)): 905 (625–1254) μg/L
- Cmin median (IQR) ([2]; patients reporting Headache: None (n = 91)): 970 (618–1288) μg/L
- Cmin median (IQR) ([2]; patients reporting Headache: Severe (n = 1)): 2413 µg/L
- Cmin median (IQR) ([2]; patients reporting Itching: Mild (n = 61)): 923 (740–1243) μg/L
- Cmin median (IQR) ([2]; patients reporting Itching: None (n = 61)): 954 (565–1283) μg/L
- Cmin median (IQR) ([2]; patients reporting Itching: Severe (n = 11), p severe .012): 1260 (1021–1800) μg/L
- Cmin median (IQR) ([2]; patients reporting Myalgia: Mild (n = 62)): 1031 (765–1380) μg/L
- Cmin median (IQR) ([2]; patients reporting Myalgia: None (n = 56)): 857 (574–1219) μg/L
- Cmin median (IQR) ([2]; patients reporting Myalgia: Severe (n = 12)): 840 (658–1553) μg/L
- Cmin median (IQR) ([2]; patients reporting Nausea: Mild (n = 27)): 1210 (750–1798) μg/L
- Cmin median (IQR) ([2]; patients reporting Nausea: None (n = 104)): 945 (615–1249) μg/L
- Cmin median (IQR) ([2]; patients reporting Nausea: Severe (n = 1)): 648 µg/L
- Cmin median (IQR) ([2]; patients reporting Rash: None (n = 75)): 964 (598–1338) μg/L
- Cmin median (IQR) ([2]; patients reporting Rash: Severe (n = 12)): 1157 (764–1540) μg/L
- 1-year MMR rate according to nilotinib Cmin (BCR-ABL transcript level [3]; All patients, Cmin quartile Q1 (< 635 μg/L)): 56% (5/9)
- 1-year MMR rate according to nilotinib Cmin (BCR-ABL transcript level [3]; All patients, Cmin quartile Q2 (Q2–Q3 635–< 1346 μg/L)): 88% (7/8)
- 1-year MMR rate according to nilotinib Cmin (BCR-ABL transcript level [3]; All patients, Cmin quartile Q3 (Q2–Q3 635–< 1346 μg/L)): 75% (12/16)
- 1-year MMR rate according to nilotinib Cmin (BCR-ABL transcript level [3]; All patients, Cmin quartile Q4 (≥ 1346 μg/L)): 30% (3/10)
- median time to MMR12 (BCR-ABL transcript level [3]; Cmin quartile Q1, n = 5): 6.4 months
- median time to MMR12 (BCR-ABL transcript level [3]; Cmin quartile Q2, n = 7): 6.7 months
- median time to MMR12 (BCR-ABL transcript level [3]; Cmin quartile Q3, n = 12): 4.3 months
- median time to MMR12 (BCR-ABL transcript level [3]; Cmin quartile Q4, n = 3): 2.8 months
- 1-year MMR rate according to nilotinib Cmin (BCR-ABL transcript level [3]; Subpopulation 1A/1B (1st line treatment), Q1 (< 635 μg/L)): 71% (5/7)
- 1-year MMR rate according to nilotinib Cmin (BCR-ABL transcript level [3]; Subpopulation 1A/1B (1st line treatment), Q2): 100% (5/5)
- 1-year MMR rate according to nilotinib Cmin (BCR-ABL transcript level [3]; Subpopulation 1A/1B (1st line treatment), Q3): 73% (8/11)
- 1-year MMR rate according to nilotinib Cmin (BCR-ABL transcript level [3]; Subpopulation 1A/1B (1st line treatment), Q4 (≥ 1346 μg/L)): 40% (2/5)
- 1-year MMR rate according to nilotinib Cmin (BCR-ABL transcript level [3]; Subpopulation 2A/2B (≥ 2nd line treatment), Q1 (< 635 μg/L)): 0% (0/2)
- 1-year MMR rate according to nilotinib Cmin (BCR-ABL transcript level [3]; Subpopulation 2A/2B (≥ 2nd line treatment), Q3): 80% (4/5)
- 1-year MMR rate according to nilotinib Cmin (BCR-ABL transcript level [3]; Subpopulation 2A/2B (≥ 2nd line treatment), Q4 (≥ 1346 μg/L)): 20% (1/5)
- mean time to MMR12 (BCR-ABL transcript level [3]; first-line nilotinib treatment): 5.9 ± 3.2 months
- median time to MMR12 (BCR-ABL transcript level [3]; first-line nilotinib treatment): 6.1 months
- time to MMR12, range (BCR-ABL transcript level [3]; first-line nilotinib treatment): 1.2–12.9 months
- 1-year MMR rate (BCR-ABL transcript level [3]; first-line nilotinib treatment (subpopulations 1A/1B), 20/28): 71%
- overall 1-year MMR rate (BCR-ABL transcript level [3]; range over lines of treatment): 47 to 71%
- mean time to MMR12 (BCR-ABL transcript level [3]; [7]): 5.8 ± 4.4 months
- median time to MMR12 (BCR-ABL transcript level [3]; [7]): 3.7 months
- time to MMR12, range (BCR-ABL transcript level [3]; [7]): 2.6–12.4 months
- 1-year MMR rate (BCR-ABL transcript level [3]; second/third-line nilotinib treatment (subpopulations 2A/2B), 7/15): 47%
- 1-year MMR rate (BCR-ABL transcript level [4]): 55%
- number of patients who discontinued nilotinib treatment due to progression [5]: 4
- number of patients who discontinued nilotinib treatment due to side effects [5]: 6

From paper PMC7419465, “Response and Adherence to Nilotinib in Daily practice (RAND study): an in-depth observational study of chronic myeloid leukemia patients treated with nilotinib” (European Journal of Clinical Pharmacology, 2020)
